The source of these data is patent US4204879A, “Amino acid salts of anionic dyestuffs which have high solubility in organic solvents” (Williams (Hounslow) Limited, priority 1976, dated 1980).

A short description of this data set: Maximum concentration of dye giving a solution stable for 24 hours at room temperature (Tables 2 and 3). Type of data set: physicochemical. The method, then: The solubility values given in these Tables are the maximum concentration of dye in grams/liter giving a solution stable for 24 hours at room temperature.
The mark [1] stands for this setting: Table 2, 24 hours, room temperature, salts of 1:2 chromium complex of 2-amino-4-nitrophenol→3-methyl-1-phenyl-5-pyrazolone.

Turning to aniline, under setting [1], the “Solubility in Acetone” value was 25 g.1^-1 and the “Solubility in Ethyl Acetate” value is recorded as < 5 g.1^-1.
Consider N-phenylglycine, for which the “Solubility in Acetone” value (acetone, 24 h) was > 100 g.1^-1. In addition, the “Solubility in Ethanol” value (24 h) was 50 g.1^-1. Moreover, the “Solubility in Ethyl Acetate” value (ethyl acetate, 24 h) was 100 g.1^-1.
As for iso-tridecylamine, for the setting “acetone, 24 h”, the “Solubility in Acetone” value was > 500 g.1^-1. Further, under “24 h”, the “Solubility in Ethanol” value turned out to be 200 g.1^-1. Also, where the note is “ethyl acetate, 24 h”, the “Solubility in Ethyl Acetate” value was < 50 g.1^-1.
On the same counts, the results for 2-ethylhexylamine are > 100 g.1^-1, 30 g.1^-1 and < 5 g.1^-1.
